Measured values from PubChem BioAssay AID743477 (Broad Institute, 2014).
Several values for one entry are separate records, joined by “and”; a condition that tells them apart may be missing. Identical values can stand only once. Activity calls are given as the source filed them.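 The calls were made as follows: active = fitted curve drops to -35% activity change at a dose no higher than twice the top valid tested dose; inconclusive = no clear call, values can overlap the other calls; inactive = the rest, including effects opposite to the expected drop.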

Test system: TC71 Ewing sarcoma viability, CellTiter-Glo ATP, 72 h
Experiment: killing of EWS/Fli1-dependent TC71 cells, confirmation, cell-based, luminescence, retest at dose, dry powder (AID 743477)
Details: not given

Row | SMILES | AC35
1 | COc1ccccc1-c1nnc2n1N=C(c1ccc3c(c1)OCO3)CS2 | 0.0207 µM
2 | CCOC(=O)CCNc1cc(N2CCc3ccccc3CC2)nc(-c2ccccn2)n1 | 2.59 µM
3 | CCC(C)C(=O)OC1CC(C)C=C2C=CC(C)C(CCC(O)CC(O)CC(=O)O)C21 (stereo not drawn) | 45.3 µM
4 | COc1ccc(C2=Nn3c(nnc3-c3ccccc3OC)SC2)cc1OC | 0.0613 µM
5 | COc1ccccc1S(=O)(=O)N1CC[C@@H]2[C@@H](CO)Nc3ccc(-c4ccc(C#N)cc4)cc3[C@@H]21 | 10.5 µM
6 | N#Cc1ccc(-c2ccc3c(c2)[C@H]2[C@H](CCN2S(=O)(=O)c2cccc(F)c2)[C@@H](CO)N3)cc1 | 7.8 µM
7 | N#CC1=C(N)Oc2cc(OC(=O)c3ccccc3)ccc2C1c1cccc(Br)c1 (stereo not drawn) | 3.08 µM
8 | COc1ccc(C2=Nn3c(nnc3-c3ccccc3Cl)SC2)cc1OC | 0.427 µM
9 | CCc1c2c(nc3ccc(O)cc13)-c1cc3c(c(=O)n1C2)COC(=O)C3(O)CC (stereo not drawn) | 0.00199 µM
10 | COc1ccc(S(=O)(=O)N2CC[C@@H]3[C@@H](CO)Nc4ccc(-c5cccc(C#N)c5)cc4[C@@H]32)cc1 | 4.14 µM
11 | C=C([C@@H](O)[C@@H](C)O)[C@@H](OC)[C@]1(C)Cc2cc3cc(O[C@H]4CC(OC5CC(O)C(O)C(C)O5)C(O)C(C)O4)cc(O)c3c(O)c2C(=O)[C@H]1OC1CC(OC2CC(OC3CC(C)(O)C(O)C(C)O3)C(O)C(C)O2)C(O)C(C)O1 (stereo partly drawn) | 0.0558 µM
12 | COc1ccc(-c2ccc3c(c2)[C@H]2[C@H](CCN2S(=O)(=O)c2ccc(OC)cc2)[C@@H](CO)N3)cc1 | 3.72 µM
13 | Cc1ccc([N+](=O)[O-])cc1S(=O)(=O)N(C)C | 7.95 µM
14 | N#CC1=C(N)Oc2cc(N)ccc2C1c1cccc(Br)c1 (stereo not drawn) | 0.183 µM
15 | Clc1ccccc1-c1nnc2n1N=C(c1ccc3c(c1)OCO3)CS2 | 0.411 µM
16 | CC[C@@]1(O)C(=O)OCc2c1cc1n(c2=O)Cc2cc3c(CN(C)C)c(O)ccc3nc2-1 | 0.029 µM
17 | COc1ccc(S(=O)(=O)N(C(C)=O)c2ccc(OC(C)=O)c3ccccc23)cc1[N+](=O)[O-] | 4.46 µM
18 | N#CC1=C(N)Oc2ccc3ccccc3c2C1c1cccc(F)c1 (stereo not drawn) | 0.677 µM
19 | Nc1ncnc2c1c(-c1cccc(OCc3ccccc3)c1)cn2C1CC(CN2CCCC2)C1 (stereo not drawn) | 10.5 µM
20 | CC(C)(O)CCc1ccc(O)c2c(=O)c3c(O)c4c(cc3oc12)O[C@H]1OC=C[C@@]41O | < 0.026 µM

Row | SMILES | AC35
21 | COc1ccc(S(=O)(=O)N2CC[C@@H]3[C@H](CO)Nc4ccc(-c5ccc(C#N)cc5)cc4[C@@H]32)cc1 | 7.92 µM
22 | CN(C)c1ccc2c(c1)OC(N)=C(C#N)C2c1cccc(F)c1 (stereo not drawn) | 0.0214 µM
23 | COc1ccc(S(=O)(=O)N2CC[C@@H]3[C@@H](CO)N(C)c4ccc(-c5ccc(F)cc5)cc4[C@@H]32)cc1 | 3.41 µM
24 | N#Cc1ccc(-c2ccc3c(c2)[C@H]2[C@H](CCN2S(=O)(=O)c2ccccc2F)[C@@H](CO)N3)cc1 | 11 µM
25 | COc1cccc(C2C(C#N)=C(N)Oc3cc(N)ccc32)c1 (stereo not drawn) | 0.571 µM
26 | N#CC1=C(N)Oc2cc(N)ccc2C1c1ccc2ccccc2c1 (stereo not drawn) | 11.9 µM
27 | N#CC1=C(N)Oc2cc(N)ccc2C1c1ccccc1 (stereo not drawn) | 12.8 µM
28 | COc1ccccc1-c1nnc2n1N=C(c1ccc(O)c(O)c1)CS2 | 1.32 µM
29 | N#CC1=C(N)Oc2cc(N)ccc2C1c1cccc(F)c1 (stereo not drawn) | 1.77 µM
30 | O=C(Cc1ccc(-c2ccc(OCCN3CCOCC3)cc2)cn1)NCc1ccccc1 | < 0.0235 µM
31 | COc1ccc(-c2ccc3c(c2)[C@H]2[C@H](CCN2S(=O)(=O)c2ccc(OC)cc2)[C@@H](CO)N3C)cc1 | 3.19 µM
32 | Cc1ccccc1C1C(C#N)=C(N)Oc2cc(N)ccc21 (stereo not drawn) | 13.2 µM
33 | COc1cccc(S(=O)(=O)N2CC[C@@H]3[C@@H](CO)Nc4ccc(-c5ccc(C#N)cc5)cc4[C@@H]32)c1 | 21 µM
34 | Cn1cc(-c2ccncc2)c(-c2ccc(OCc3ccc4ccccc4n3)cc2)n1 | 20 µM
35 | CC[C@]1(O)CC2CN(CCc3c([nH]c4ccccc34)[C@@](C(=O)OC)(c3cc4c(cc3OC)N(C=O)[C@H]3[C@@](O)(C(=O)OC)[C@H](OC(C)=O)[C@]5(CC)C=CCN6CC[C@]43[C@@H]65)C2)C1 (stereo partly drawn) | < 0.0015 µM
36 | COc1cc([C@@H]2c3cc4c(cc3[C@@H](O[C@@H]3O[C@@H]5CO[C@@H](C)O[C@H]5[C@H](O)[C@H]3O)[C@H]3COC(=O)[C@H]23)OCO4)cc(OC)c1O | 0.577 µM
37 | COc1ccc(-c2cc(NC=O)c3ncc(-c4ccc(OC)c(OC)c4)n3c2)cc1 | 0.563 µM
38 | CN1c2ccc(-c3ccc(C#N)cc3)cc2[C@H]2[C@H](CCN2S(=O)(=O)c2cccc(F)c2)[C@H]1CO | 3.76 µM
39 | O=C(c1cc(Cc2n[nH]c(=O)c3ccccc23)ccc1F)N1CCN(C(=O)C2CC2)CC1 | 2.3 µM
40 | Cc1nc(Nc2ncc(C(=O)Nc3c(C)cccc3Cl)s2)cc(N2CCN(CCO)CC2)n1 | 26.8 µM

Row | SMILES | AC35
41 | Nc1ccn([C@@H]2O[C@H](CO)[C@H](O)C2O)c(=O)n1 (stereo partly drawn) | 0.585 µM
42 | CCCCc1ccc2nc(NC(=O)OC)[nH]c2c1 | < 0.05 µM
43 | N#CC1=C(N)Oc2cc3c(cc2C1c1cccc(Br)c1)OCO3 (stereo not drawn) | 0.0497 µM
44 | COc1cc(C2C(C#N)=C(N)Oc3cc(N(C)C)ccc32)cc2c1OCO2 (stereo not drawn) | 0.132 µM
45 | COc1ccc(OC)c(-c2nnc3n2N=C(c2ccc(OC)c(OC)c2)CS3)c1 | 0.0276 µM and 0.0226 µM
46 | COc1cccc2c1C(=O)c1c(O)c3c(c(O)c1C2=O)C[C@@](O)(C(=O)CO)C[C@@H]3O[C@H]1C[C@H](N)[C@H](O)[C@H](C)O1 | < 0.05 µM
47 | N#CC1=C(N)Oc2cc(N)ccc2C1c1ccccc1Cl (stereo not drawn) | 10.6 µM
48 | Cc1c([C@H](C(Cl)Cl)[C@H](O)[C@H]2C[C@H](C)C(=O)O2)ccc2c1C(=O)[C@H]1[C@H]2C[C@@H](Br)[C@@]23O[C@@H](CO[C@H]2O)C[C@]13C | < 0.05 µM
49 | COc1ccc(S(=O)(=O)N2CC[C@@H]3[C@@H](CO)Nc4ccc(-c5ccc(C#N)cc5)cc4[C@@H]32)cc1 | 3.78 µM
50 | CN1CCN(CCOc2cc(OC3CCOCC3)c3c(Nc4c(Cl)ccc5c4OCO5)ncnc3c2)CC1 | 21.2 µM
51 | N#CC1=C(N)Oc2cc(O)ccc2C1c1cccc(Br)c1 (stereo not drawn) | 2.72 µM
52 | Cc1cccc(C2C(C#N)=C(N)Oc3cc(N)ccc32)c1 (stereo not drawn) | 0.689 µM
53 | C[C@@]1(C(=O)Nc2ccc(F)nc2)CCCN1c1nc(Nc2cc(C3CC3)[nH]n2)c2cccn2n1 | 0.458 µM
54 | Cc1ccc(S(=O)(=O)N2CC[C@@H]3[C@@H](CO)Nc4ccc(-c5ccc(C#N)cc5)cc4[C@@H]32)cc1 | 18.6 µM
55 | Cc1cc(Nc2cc(N3CCN(C)CC3)nc(Sc3ccc(NC(=O)C4CC4)cc3)n2)n[nH]1 | 2.15 µM
56 | COc1ccc(C(=O)CC2(O)C(=O)Nc3c(Cl)ccc(Cl)c32)cc1 (stereo not drawn) | 2.93 µM
57 | COc1ccc(C2=Nn3c(nnc3-c3ccccc3F)SC2)cc1OC | 3.34 µM
58 | CC1(C)CC(c2nc(-c3ccc4ccc(-c5ccccc5)nc4c3)c3c(N)nccn23)C1 | 4.5 µM
59 | CC(C)N1c2ccccc2C(c2ccc(F)cc2)C1/C=C/C(O)CC(O)CC(=O)O (stereo not drawn) | 2.59 µM

Test system: not listed separately
Experiment: as above
Details: TC71 Ewing sarcoma viability, CellTiter-Glo ATP, 72 h; at 1.6 µM (top of the series)

Row | SMILES | activity change, negative = cytotoxicity
60 | CCN(CCO)CCCOc1ccc2c(Nc3cc(CC(=O)Nc4cccc(F)c4)[nH]n3)ncnc2c1 | -35.4% (inactive)

Same assay, conditions: TC71 Ewing sarcoma viability, CellTiter-Glo ATP, 72 h; at 6 µM (top of the series)

Row | SMILES | activity change, negative = cytotoxicity
61 | Clc1ccc(-c2cnc3ccc(-c4ccccc4)cn23)cc1 | -1.71% (inactive)

Same assay, conditions: TC71 Ewing sarcoma viability, CellTiter-Glo ATP, 72 h; at 12 µM (top of the series)

Row | SMILES | activity change, negative = cytotoxicity
62 | COc1ccc(NC(=O)Nc2ccc3c(c2)C(=O)N([C@@H](C)CO)C[C@H](C)[C@H](CN(C)Cc2ccc4c(c2)OCO4)O3)cc1 | -31.5% (inactive)

Same assay, conditions: TC71 Ewing sarcoma viability, CellTiter-Glo ATP, 72 h; at 26 µM (top of the series)

Row | SMILES | activity change, negative = cytotoxicity
63 | COc1ccccc1C1C(C#N)=C(N)Oc2cc(N)ccc21 (stereo not drawn) | -24.3% (inactive)
64 | O=C(Nc1c(Cl)cncc1Cl)c1ccc(OC(F)F)c(OCC2CC2)c1 | -7.16% (inactive)
65 | COc1ccc(-c2cc(NC(C)=O)c3ncc(-c4ccc(OC)c(OC)c4)n3c2)cc1 | -8.1% (inactive)
66 | N#CC1=C(N)Oc2cc(N)ccc2C1c1ccc(Cl)cc1 (stereo not drawn) | -10.5% (inactive)
67 | Cc1ccc(C2C(C#N)=C(N)Oc3cc(N)ccc32)cc1 (stereo not drawn) | -0.007% (inactive)
68 | CN1c2ccc(-c3ccc(C#N)cc3)cc2[C@H]2[C@H](CCN2S(=O)(=O)c2ccc(F)cc2)[C@H]1CO | -15.7% (inactive)
69 | COc1ccc(C2C(C#N)=C(N)Oc3cc(N)ccc32)cc1 (stereo not drawn) | -6.57% (inactive)
70 | C[C@]1(c2nc3c(C(N)=O)cccc3[nH]2)CCCN1 | -3.66% (inactive)
71 | COc1ccc(C2=Nn3c(nnc3-c3ccccc3)SC2)cc1OC | -10.7% (inactive)
72 | COc1ccc(CNc2nc(N3CCC[C@H]3CO)ncc2C(=O)NCc2ncccn2)cc1Cl | -6.81% (inactive)
73 | N#CC1=C(N)Oc2cc(N)ccc2C12C(=O)Nc1ccc(Br)cc12 (stereo not drawn) | -13% (inactive)
74 | CN(C(=O)CCCOc1ccc2[nH]c(=O)ccc2c1)C1CCCCC1 | -11% (inactive)
75 | COC(=O)c1ccc(C2C(C#N)=C(N)Oc3cc(N)ccc32)cc1 (stereo not drawn) | -13.5% (inactive)
76 | COc1ccc(C2CNC(=O)C2)cc1OC1CCCC1 (stereo not drawn) | 1.67% (inactive)
77 | CCC(C)(C)C(=O)O[C@H]1C[C@@H](C)C=C2C=C[C@H](C)[C@H](CC[C@@H]3C[C@@H](O)CC(=O)O3)[C@H]21 | -7.31% (inactive)

Same assay, conditions: TC71 Ewing sarcoma viability, CellTiter-Glo ATP, 72 h; at 50 µM (top of the series)

Row | SMILES | activity change, negative = cytotoxicity
78 | O=P1(NCCCl)OCCCN1CCCl (stereo not drawn) | 3.6% (inactive)
